# Where two headings read alike, the source gives them in different places.
# Experiments:
# [1] = Hemolytic activity on human erythrocytes (in vitro); assay type: cell-based; details: both sexes; for hemolysis at 1 h, 1000 µg/mL: 0.5% red blood cell suspension, read-out: hemolysis rate
# Text: (§1) The in vitro and ex vivo assays followed the guidelines provided in the Ethics Code of the World Medical Association and were approved by the Ethics Committee of the Patos University Center (protocol number: 3.621.284). For cell pellet preparation, blood samples (A, B, and O), and buccal mucosa were used from healthy young adults of both sexes between 18 and 40 years of age.
# For hemolytic activity, red blood cell (RBC) samples were mixed with 0.9% NaCl in a proportion of 1:30 and centrifuged for 5 min (1400 g, 28°C) to obtain a white blood cell and platelet-free 0.5% suspension. The tested substance (Pg-1) was added to 2 mL RBC suspensions at the concentrations of 50, 100, 500, and 1000 µg/mL. The control samples were divided into two groups: negative control - RBC suspension (0% hemolysis) and a positive control - RBC suspension with 1% Triton X-100 (100% hemolysis). The material was incubated for 1 h at 22±2°C. Afterwards, the samples were centrifuged for 5 min (1400 g, 28°C) and hemolysis was quantified by spectrophotometry at 540 nm wavelength ([6]).
# [2] = system: oral mucosa cells; assay: Genotoxic effect on oral mucosa cells (ex vivo); assay type: cell-based, human
# Text: as §1
# For evaluation of the genotoxic effect on oral mucosa cells, cell collection from the oral mucosa of the donors was performed with a cytobrush (smear brush collector) in the cheek area, and the material obtained was placed in 5 mL of 0.9% NaCl ([7]). Control samples were divided into two groups: cells treated with 0.0005% hydrogen peroxide (positive control) and cells not exposed to treatments (negative control). The cells were washed twice in saline solution and centrifuged for 10 min (900 g, 28°C). The cell pellets were re-suspended and kept in 5 mL of saline solution. After the third wash, they were exposed (ex vivo) to Pg-1 (50, 100, 500, and 1000 µg/mL) for 30 min; each test was performed in triplicate. The material was centrifuged for 5 min (900 g, 28°C) and the supernatant was removed before smear preparation. The cells were homogenized in a vortex and dried on the slides at room temperature for 15 min. Finally, they were fixed with a methanol:acetic acid mixture (3:1) for 15 min ([8]), and stained with 2% Giemsa. The cells were observed under an optical microscope and about 1000 cells were analyzed per slide. The data are reported as percentages representing the arithmetic average of three measurements ([9]). The cell toxicity was assessed by the presence of cellular indicators such as micronucleus, bi-nucleation, karyolysis, karyorrhexis, and macronucleus ([10]).
smiles,measurement,setting,value
"COc1ccc(-c2oc3c(OC)c(O)cc(O)c3c(=O)c2OC)cc1 [Pg-1, 5,7-dihydroxy-3,8,4'-trimethoxy]",hemolysis at 1 h,"[1]; 0.5% red blood cell suspension (blood types A, B and O), all concentrations tested (50-1000 µg/mL), read-out: rate of hemolysis (class)",0 to 40%
same,"hemolysis at 1 h, 1000 µg/mL",[1]; type A blood,< 5%
same,"hemolysis at 1 h, 1000 µg/mL",[1]; type B blood,< 17%
same,"hemolysis at 1 h, 1000 µg/mL",[1]; type O blood,< 9%
same,Binucleation (%),"[2]; 50 µg/mL, 30 min",3.00±0.33 %
same,Karyolysis (%),"[2]; 50 µg/mL, 30 min",2.88±0.11 %
same,Karyorrhexis (%),"[2]; 50 µg/mL, 30 min",1.77±0.58 %
same,Macronucleus (%),"[2]; 50 µg/mL, 30 min",6.55±0.58%
same,Micronucleus (%),"[2]; 50 µg/mL, 30 min",0.55±0.11 %
same,Normal (%),"[2]; 50 µg/mL, 30 min",85.22±0.72 %
same,Binucleation (%),"[2]; 100 µg/mL, 30 min",1.77±0.58 %
same,Karyolysis (%),"[2]; 100 µg/mL, 30 min",2.44±0.44 %
same,Karyorrhexis (%),"[2]; 100 µg/mL, 30 min",7.33±0.19%
same,Macronucleus (%),"[2]; 100 µg/mL, 30 min",3.55±0.94 %
same,Micronucleus (%),"[2]; 100 µg/mL, 30 min",0.22±0.11 %
same,Normal (%),"[2]; 100 µg/mL, 30 min",84.67±1.07 %
same,Binucleation (%),"[2]; 500 µg/mL, 30 min",2.33±0.50 %
same,Karyolysis (%),"[2]; 500 µg/mL, 30 min",2.55±0.80 %
same,Karyorrhexis (%),"[2]; 500 µg/mL, 30 min",3.66±1.01 %
same,Macronucleus (%),"[2]; 500 µg/mL, 30 min",5.33±0.33%
same,Micronucleus (%),"[2]; 500 µg/mL, 30 min",0.22±0.11 %
same,Normal (%),"[2]; 500 µg/mL, 30 min",85.89±1.78 %
same,Binucleation (%),"[2]; 1000 µg/mL, 30 min",1.55±0.58 %
same,Karyolysis (%),"[2]; 1000 µg/mL, 30 min",1.44±0.22 %
same,Karyorrhexis (%),"[2]; 1000 µg/mL, 30 min",1.44±0.11 %
same,Macronucleus (%),"[2]; 1000 µg/mL, 30 min",3.66±0.19 %
same,Micronucleus (%),"[2]; 1000 µg/mL, 30 min",0.33±0.01 %
same,Normal (%),"[2]; 1000 µg/mL, 30 min",91.56±0.44 %
same,toxicity in genotoxicity testing,[2]; all concentrations (50-1000 µg/mL),low toxicity
"OO [Positive control, hydrogen peroxide, reference compound]",Binucleation (%),[2]; 0.0005% hydrogen peroxide,4.33±0.38%
same,Karyolysis (%),[2]; 0.0005% hydrogen peroxide,5.44±0.72%
same,Karyorrhexis (%),[2]; 0.0005% hydrogen peroxide,5.11±0.67%
same,Macronucleus (%),[2]; 0.0005% hydrogen peroxide,4.55±0.80%
same,Micronucleus (%),[2]; 0.0005% hydrogen peroxide,4.00±0.88%
same,Normal (%),[2]; 0.0005% hydrogen peroxide,76.56±3.08%
same,Normal (%),"[2]; 0.0005% hydrogen peroxide, listed as positive control",< 80%

# Reference: paper PMC8373196, “In silico, in vitro, and ex vivo studies of the toxicological and pharmacological properties of the flavonoid 5,7-dihydroxy-3,8,4'-trimethoxy” (Brazilian Journal of Medical and Biological Research, 2021)
